6 molecules from US11266647B2, “Method for increasing cell proliferation in pancreatic beta cells, treatment method, and composition” (ICAHN SCHOOL OF MEDICINE AT MOUNT SINAI, priority 2016, dated 2022) can be followed below.

One assay concerns SMAD signaling. Kind of assay: Immunoblots of SMADs in whole human islets. It counts as cell-based. From the text:
(§1) The immunoblots are representative of separate experiments in human islets from three different donors. […] Ad.shLacZ indicates a sh-adenovirus for the Ad.shDYRK1A.
Primary antisera employed were: SMAD2/3 (Cell Signaling, 8685p), p-SMAD3 (Abcam, ab52903), SMAD4 (Sc-7966, Santa Cruz), SMAD1/5/9 (ab66737, Abcam), p15INK4 (Abcam, ab53034), p16INK4a (Sc-468, Santa Cruz), p21CIP (556430, BD), p57CIP2 (2557s, Cell Signaling) and GAPDH (Sc-25778, Santa Cruz).
To ascertain whether the harmine-TGFβSF inhibitor combination affected SMAD signaling, human islets were incubated with harmine alone or in combination with two TGFβSF inhibitors: LY or ALK5 (FIG. 5A).
For orientation: A western blot detects proteins with antibodies after separation by electrophoresis.

The test system of assay [1] is human beta cells. Description: Ki67 labeling of insulin-positive cells in dispersed human cadaveric islets. It counts as cell-based. The note with it: for Ki67 labeling with other DYRK1A inhibitors in combination therapy: DYRK1A inhibitor other than harmine, with TGFβSF inhibitor. The source says: (§2) Primary antisera were: BrdU (ab6326, Abcam), Ki67 (RM-9106-sl, Thermo Scientific, and MIB1, DAKO), p-Histone-3 (06-570, Millipore), insulin (A0564, DAKO), p-yH2AX (MA1-2022, Thermo Scientific), NKX6.1 (F55A10-c, University of Iowa), PDX1 (07-696, Millipore), MAFA (Ab26405, Abcam), Glucagon (2760s, Cell Signaling), Somatostatin (Sc-20999, Santa Cruz), Pancreatic Polypeptide (A0619, DAKO), and CK19 (Ab52625, Abcam). Species-specific mouse Alexa Fluor 488 (A-11029, Life Technologies), rat Alexa Fluor 594 (A-11007, Life Technologies), rabbit Alexa Fluor 488 (A11037, Life Technologies) or guinea pig Alexa Fluor 488 (A-11073, Life Technologies) secondary antisera were selected as appropriate.

The test system of assay [2] is human beta cells. Description: Ki67 immunolabeling in human islets with adenoviral silencing or overexpression plus drug. It counts as cell-based. The protocol: as §1
Unless otherwise described, all transductions were performed using 150 moi for one hour, and studies performed 72 hours later. […] Adenoviruses encoding human SMAD6 or SMAD7 were prepared as described using cDNAs encoding SMAD6 and SMAD7 obtained from Harvard PlasmID Database.
as §2

Assay [3] has as its system human beta cells. Kind of assay: Human islet transplant under renal capsule of NOD-SCID mice: beta cell Ki-67/insulin. The format is in vivo, human islets in NOD-SCID mice. The note with it: i.p. daily 7 days, harmine 10 mg/kg, GW788388 30 mg/kg. The protocol:
(§3) On day seven, treatment was begun exactly as in FIG. 9A for seven days.
Mice were allowed to recover for 7 days and then treated with vehicle (saline), 10 mg kg-1 harmine HCl, 30 mg kg-1 GW788388 or the combination of harmine and GW788388 by intraperitoneal injection daily for 7 days. Mice were sacrificed on day 7, renal grafts harvested, fixed in 10% neutral buffered formalin, paraffin embedded and sectioned.
(§4) To evaluate the effects of harmine and TGFβ inhibitor in vivo, C57BL6N mice were administered vehicle ([…]), harmine, GW788388, or the combination of harmine plus GW788388 intraperitoneally for seven days, sacrificed, and evaluated for insulin and Ki67. […] Next, human cadaveric islets were transplanted into NOD-SCID mice.

Another assay relates to mouse beta cells. Description: Mouse pancreas study: beta cell Ki-67/insulin after 7 days i.p. treatment. It counts as in vivo, C57BL/6N mice. The note with it: C57BL6N mice, i.p. daily 7 days, harmine 10 mg/kg, GW788388 30 mg/kg. On the procedure: as §3
Male C57BL/6N mice (12 week-old) received vehicle (saline), 10 mg kg^−1 harmine HCl, 30 mg kg^−1 GW788388 or the combination of harmine and GW788388 by intraperitoneal injection daily for 7 days. Mice were sacrificed on day 7, pancreata harvested, fixed in 10% neutral buffered formalin, paraffin embedded, and sectioned. […] A minimum of 2,000 beta cells per pancreas were counted. Investigators were blinded as to group assignments.
as §4

In another assay the test system is beta cells of T2D islets. Description: Ki67 immunolabeling in islets from donors with Type 2 diabetes. The following applies: harmine alone.
For assay [4], the system named is cell cycle activators and cell cycle inhibitors. Kind of assay: qPCR of cell cycle activators and inhibitors in whole human islets. Background: In qPCR the cycle at which signal appears reflects the starting amount.
Procedure: Gene expression in dispersed islets was analyzed by real-time PCR performed on an ABI 7500 System.
Reasoning that harmine and harmine-TGFβ inhibitors (and DYRK1A and SMADs, respectively) must ultimately orchestrate cell cycle entry via cell cycle activators and cell cycle inhibitors, gene expression of cell cycle activators and inhibitors was examined in whole islets treated with vehicle, harmine, TGFβ inhibitor or the harmine-TGFβ inhibitor combination (FIGS. 6A-6B).
The test system of another assay is TGFβ superfamily members. Kind of assay: RNAseq of whole human islets. The format is cell-based.

“Also recorded” adds a separate entry of the source.

Source text for beta cells of T2D islets: Islets from normal and Type 2 diabetes adult cadaveric pancreas donors were obtained from the NIH/NIDDK-supported Integrated Islet Distribution Program and from the Alberta Diabetes Institute. Depending on the experiments performed, islets were used either as intact islets, or were first dispersed with Accutase (Sigma, St. Louis, Mo.) onto coverslips.

Regarding `Cc1cccc(-c2n[nH]cc2-c2ccc3ncccc3n2)n1` [ALK5 inhibitor, 2-(3-(6-Methylpyridin-2-yl)-1H-pyrazol-4-yl)-1,5 napththyridine], the “p-SMAD3 (SMAD3 phosphorylation), immunoblot” value (“p-SMAD3” for short) with SMAD signaling was “further reduced”.
Consider `c1ccc(-c2n[nH]cc2-c2ccnc3ccccc23)nc1` [LY364947, 4-[3-(2-Pyridinyl)-1H-pyrazol-4-yl]-quinoline], for which the “p-SMAD3” value with SMAD signaling is “further reduced”.
Take `CCN1/C(=C/C(C)=O)Sc2ccc(O)cc21` [INDY]: in the assay on human beta cells [1], the “Ki67 labeling with other DYRK1A inhibitors in combination therapy” value is “beneficial effects”.
With `O=C(NC1CCOCC1)c1ccc(-c2cc(-c3c[nH]nc3-c3ccccn3)ccn2)cc1` [GW788388, 4-(4-(3-(pyridin-2-yl)-1H-pyrazol-4-yl)pyridin-2-yl)-N-(tetrahydro-2H-pyran-4-yl)benzamide], the “proliferation with adenoviral silencing of DYRK1A” value in the assay on human beta cells [2] (Ad.shDYRK1A plus TGFβ inhibitor) is recorded as “markedly accentuates proliferation”. The “human beta cell proliferation in vivo in transplanted islets” value in the assay on human beta cells [3] is “had no effect”. Moreover, the “mouse beta cell proliferation in vivo (Ki67/insulin)” value with mouse beta cells is “induced beta cell proliferation”.
As for `O=C1NC(Nc2ccccc2)=N/C1=C\c1ccc2c(c1)OCO2` [leucettine-41], the “activation of human beta cell proliferation” value in the assay with human beta cells [1] (DYRK1A inhibitor) was “able to activate human beta cell proliferation”. The “Ki67 labeling with other DYRK1A inhibitors in combination therapy” value in the assay with human beta cells [1] was “beneficial effects”.
Regarding `COc1ccc2c(c1)[nH]c1c(C)nccc12` [harmine], the “Ki67 immunolabeling in T2D islets” value in the assay on beta cells of T2D islets was “increased Ki67 immunolabeling to the same degree observed in non-diabetic islet donors”. The “harmine-induced proliferation with overexpression of SMADs 6 and 7” value in the assay on human beta cells [2] (adenoviral overexpression, 100 moi) was “markedly enhanced”. In addition, the “harmine-induced proliferation with silencing of SMADs 2, 3, and 4” value with human beta cells [2] (adenoviral silencing, 150 moi each) is “further enhanced”. Also, the “proliferation with silencing of CDKN1A and/or CDKN1C” value in the assay with human beta cells [2] (harmine 10 μM) is recorded as “robust human beta cell proliferation”. Also, the “expression of cell cycle activators (e.g., CDK1, CCNA1, CCNE2, CDC25A)” value in assay [4] (harmine 10 μM, LY364947 5 μM, qPCR) is “induced expression”. Besides, the “cell cycle inhibitor expression other than CDKN1C” value in assay [4] (harmine alone) was “modest and limited effects”. For the same molecule, the “decline of CDKN1C (p57KIP2) expression” value in assay [4] (harmine alone, qPCR) is recorded as about 50%. Further, the “human beta cell proliferation in vivo in transplanted islets” value with human beta cells [3] is “increased this rate”. Also, in the assay with TGFβ superfamily members (Donor 1), the “BMP1 (RNAseq)” value amounted to 4 FPKM, the “BMP5 (RNAseq)” value is given as 26 FPKM, the “GDF11 (RNAseq)” value came out at 3 FPKM and the “INHA (RNAseq)” value is on record as 1 FPKM. Besides, in the assay on TGFβ superfamily members (Donor 1), the “TGFB2 (RNAseq)” value amounted to 3 FPKM, the “TGFBR1 (RNAseq)” value came to 9 FPKM and the “TGFBR2 (RNAseq)” value is on record as 3 FPKM. For the same molecule, the “TGFB1 (RNAseq)” value in the assay with TGFβ superfamily members (Donor 1, row r7) stood at 24 FPKM. Moreover, the “TGFB1 (RNAseq), second line so named” value in the assay with TGFβ superfamily members (Donor 1, row r11) is listed as 62 FPKM. In addition, in the assay on TGFβ superfamily members (Donor 2), the “BMP1 (RNAseq)” value is recorded as 3 FPKM, the “BMP5 (RNAseq)” value was 20 FPKM, the “GDF11 (RNAseq)” value was 3 FPKM and the “INHA (RNAseq)” value is recorded as 1 FPKM. In addition, in the assay with TGFβ superfamily members (Donor 2), the “TGFB2 (RNAseq)” value came out at 2 FPKM, the “TGFBR1 (RNAseq)” value is reported as 8 FPKM and the “TGFBR2 (RNAseq)” value came out at 3 FPKM. In the assay with TGFβ superfamily members (Donor 2, row r7), the “TGFB1 (RNAseq)” value is reported as 19 FPKM. For the same molecule, the “TGFB1 (RNAseq), second line so named” value in the assay on TGFβ superfamily members (Donor 2, row r11) stood at 22 FPKM. Also, the “changes in TGFβSF members on harmine treatment of human islets” value in the assay on TGFβ superfamily members (RNAseq) is recorded as “notable changes”. In the assay on mouse beta cells, the “mouse beta cell proliferation in vivo (Ki67/insulin)” value is listed as “induced beta cell proliferation”. In the assay on SMAD signaling, the “p-SMAD3” value was “reductions; also recorded: reduced” and the “total SMAD1/5/9, immunoblot” value is “reductions; also recorded: reduced”.
